The values that follow come from patent US12133855B2, “Lipid-like nanocomplexes and uses thereof” (Trustees of Tufts College, priority 2018, dated 2024).

For data set [1], the system named is HeLa-DsRed cells. Description: Cre-mediated gene recombination (DsRed expression) after (−30)GFP-Cre/LNP delivery. The note with it: 24 h; 25 nM (−30)GFP-Cre; lipidoid 3.3 mg/L. Type of data set: cell-based. As for the experimental part: (§1) The final (−30)GFP-Cre protein concentration is 25 nM, and lipidoid concentration is 3.3 mg/L. For the gene recombination functional study, HeLa-DsRed cells were treated with same conditions and the red fluorescence emission from DsRed was analyzed by flow cytometry 24 h after delivery.
The top 12 of LNPs identified through intracellular delivery screening experiments were further tested for gene recombination using HeLa-DsRed model cells. The expression of DsRed from Cre protein mediated gene recombination was analyzed after 24 h of co-incubation with free (−30)GFP-Cre protein and protein loaded LNPs. […] Most of the test LNPs, on the other hand, efficiently delivered (−30)GFP-Cre protein and induced gene recombination, with 14-46% of the cells positive for DsRed.

The subject of data set [2] is HeLa cells. Briefly: GFP mRNA delivery (GFP+ cells). The class given is cell-based. The note with it: LNP/mRNA=10/1; [mRNA]=0.86 μg mL^−1; 24 h exposure. An excerpt: Messenger RNA delivery has great potentials for cancer therapy, protein replacement therapy and neurological disorder treatments.^42 The intracellular delivery of mRNA using OCholB LNPs was studied using GFP mRNA and different cell lines (HeLa, B16F10, HEK-293, NIH/3T3 and Jurkat). The weight ratio of LNP/mRNA was optimized at first using HeLa cells. […] The weight ratio of LNP/mRNA=10/1 was then chose for the following mRNA delivery studies. […] Then the intracellular delivery efficiencies of all fully substituted OCholB LNPs were tested against HeLa cells, and Lpf2k and naked GFP mRNA were used as controls (LNP/mRNA=10/1; [mRNA]=0.86 μg mL^−1; 24 h exposure). […] As to the OCholB LNPs, 75-OCholB (62.0% of GFP^+ cells), 76-OCholB (79.8%), 77-OCholB (73.5%), 78-OCholB (67.1%), 80-OCholB (55.6%), 81-OCholB (51.6%) and 304-OCholB (52.1%) are all determined to be effective. Typical fluorescent images of mRNA/LNPs (mRNA/75-OCholB, mRNA/76-OCholB and mRNA/77-OCholB) treated HeLa cells are shown in FIG. 14C. Comparing to untreated HeLa cells, strong green fluorescent signals were recoded from nanoparticles incubated cells, which is consistent with the flow cytometry data as shown in FIG. 14D. Meanwhile, both 87-OCholB (6.1%) and 90-OCholB (2.5%) are found to be inefficient for GFP mRNA delivery into HeLa cells, which is consistent with the internalization studies using NR (FIG. 12C) and (−30)GFP-Cre protein (FIG. 12F) as the fluorescent reporters.

A short description of data set [3]: Thiol-triggered size variation of OCholB LNPs (DTT, cysteine; DLS). Type of data set: physicochemical. The note with it: 10 mM DTT, 24 h. The text has this:
The thiol-trigged degradation and dissociation of the OCholB LNPs were studied by time-dependent DLS measurements and TEM observation. […] The disruption of the vesicle structure is considered to be resulted from the thiol-exchange and disulfide bond cleavage reactions of OCholB lipidoids. We next investigated whether the thiol-containing molecules (e.g. albumin, cysteine, homocysteine, cysteinylglycine, etc.) in the serum may induce the structural disintegration of these disulfide bond-containing LNPs. The stabilities of LNPs in the presence of 20 μM of L-cysteine (Cys), which mimics the free thiols on the small- and macromolecules presented in the serum, were examined. […] While the degrees of size changes vary between lipidoids with different amine head groups, all lipidoids were more responsive to DTT (modeling intracellular conditions) than to Cysteine (modeling conditions in the blood serum).

For data set [4], the system named is HeLa cells. Description: Internalization of Nile red loaded nanoparticles (NR+ cells). The class given is cell-based. The note with it: 8 h of exposure. As for the experimental part:
(§2) The internalization kinetics and efficiencies of OCholB LNPs were then studied using NR loaded LNPs and HeLa cells. […] Next, all of the NR delivery efficiencies of eight OCholB LNPs were determined after 8 h of exposure. […] Representative fluorescent images of NR/LNPs (NR/75-OCholB, NR/76-OCholB and NR/77-OCholB) treated HeLa cells are shown in FIG. 12D, from which it is easily observed that NR was delivered into the cells and mainly distributed in cytoplasm, by OCholB LNPs. Next, the internalization of negatively charged hydrophilic fluorescent dye, calcein, was studied. […] Next, the use of OCholB LNPs for the intracellular delivery of macromolecular cargo was explored, using fluorescent recombinant (−30)GFP-Cre protein and HeLa-DsRed cells as the model system. […] Delivery efficiency was tested at a range of (−30)GFP-Cre protein concentrations (25, 50 and 100 nM), with a consistent lipid/protein ratio (i.e., delivery with the final lipid concentration of 1.7, 3.3, and 6.6 μg mL^−1 respectively). 33.2%, 43.8% and 74% of GFP positive (GFP^+) cells were recorded for (−30)GFP-Cre/Lpf2k treated cells with the concentration of (−30)GFP-Cre 25 nM, 50 nM and 100 nM, respectively. […] The typical flow cytometry profiles of naked (−30)GFP-Cre protein and (−30)GFP-Cre loaded nanoparticles ((−30)GFP-Cre/75-OCholB, (−30)GFP-Cre/76-OCholB, (−30)GFP-Cre/77-OCholB and (−30)GFP-Cre/Lpf2k) treated HeLa-DsRed cells were shown in and FIG. 12H ([lipidoid]=6.6 μg mL^−1 and [(−30)GFP-Cre]=100 nM), which is consistent with the statistical results shown in FIG. 12G. Furthermore, the representative fluorescent images from the protein and protein/nanoparticle treated HeLa-DsRed cells are also shown in FIG. 12I.

Data set [5] concerns HeLa-DsRed cells. Briefly: Genome editing efficiency of (−30)GFP-Cre/OCholB LNPs (DsRed+ cells). The note with it: (−30)GFP-Cre 25, 50 and 100 nM. Type of data set: cell-based. An excerpt:
In this context, the internalization mechanism of the (−30)GFP-Cre/LNPs complexes was studied at first, by introducing different endocytosis inhibitors, i.e., sucrose (clathrin-mediated endocytosis inhibitor), methyl-β-cyclodextrin (M-β-CD, cholesterol-depleting agent), dynasore (dynamin II inhibitor) and nystatin (caveolin-mediated endocytosis inhibitor), following our previously reported procedures. […] Comparing to other combinatorial library studies, it is clear that even loaded with same cargoes and tested against same cell line, different lipidoids with different chemical structures could be internalized through very distinct pathways. Next, the genome-editing efficiencies of (−30)GFP-Cre/LNPs were determined by flow cytometry after 24 h of incubation (with 8 h of (−30)GFP-Cre/LNPs complex exposure). Three different concentrations of protein/lipidoid complexes (25 nM/1.7 μg mL^−1, 50 nM/3.4 μg mL^−1, and 100 nM/6.6 μg mL^−1) were tested for each lipidoid nanoparticle. […] For example, the DsRed^+ cells were recorded as 10.5%/24.9%/88.9%, 13.5%/55.4%/88.8%, and 27.7%/47.8%/94.7% for (−30)GFP-Cre loaded 75-OCholB, 76-OCholB and 77-OCholB, respectively, at the protein concentration of 25, 50 and 100 nM. […] Then, the cytotoxicity profiles of (−30)GFP-Cre/LNPs, (−30)GFP-Cre/Lpf2k and naked (−30)GFP-Cre at different concentrations against HeLa-DsRed cells (8 h of exposure; (−30)GFP-Cre/LNPs=25 nM/1.7 μg mL^−1, 50 nM/3.4 μg mL^−1, and 100 nM/6.6 μg mL^−1) are measured using MTT assay after 24 h of incubation. […] For (−30)GFP-Cre/75-OCholB treated cells, the viabilities were determined to be 95.5%, 91.8% and 83.1%, at the protein concentration of 25, 50 and 100 nM, respectively; the numbers for (−30)GFP-Cre/76-OCholB and (−30)GFP-Cre/77-OCholB are 97.8%/98.2%/97.2 and 100.9%/96.6%/98.6%. […] Meanwhile, the morphology changes of HeLa-DsRed cell treated with different nanoparticle formulations were studied and the results are shown in FIG. 15E. […] Samples found in upper left quadrant are non-toxic and inefficient for delivery; samples in lower left quadrant are toxic and inefficient; samples in lower right quadrant are efficient but toxic; samples in upper right quadrant are non-toxic and efficient, which would be top candidates for further study. It is clear that Lpf2k (shown in dotted purple circle) at high concentration is relatively efficient for genome editing, while also toxic to the target cells. On the other hand, most of the (−30)GFP-Cre loaded OCholB LNPs are almost non-toxic when compared to (−30)GFP-Cre/Lpf2k, similar to naked (−30)GFP-Cre protein. 87-OCholB, 90-OCholB and 304-OCholB (shown in dotted dark blue circle) are less efficient for genome-editing; while high genome editing efficacy and excellent tolerability were achieved by using 75-OCholB, 76-OCholB and 77-OCholB (shown in dotted green circle).

Data set [6] relates to HeLa-DsRed cells. The class given is cell-based. The note with it: (−30)GFP-Cre 25, 50 and 100 nM. As for the experimental part: as §2
Data set [7] has as its system HeLa-DsRed cells. Briefly: Intracellular delivery of (−30)GFP-Cre/LNP (GFP-positive cells). Type of data set: cell-based. The note with it: flow cytometry, 6 h; 25 nM (−30)GFP-Cre; lipidoid 3.3 mg/L. As for the experimental part: as §1
A Cre recombinase protein fused to a negatively supercharged GFP variant ((−30)GFP-Cre) was used as a model cargo protein. The (−30)GFP-Cre protein was able to complex with cationic LNPs through electrostatic attraction and other types supramolecular interactions. The cellular uptake of LNPs could be determined by direct analysis of intracellular GFP fluorescent intensity as reported in Wang. HeLa-DsRed cells were used in this study, which expressed red fluorescent DsRed upon Cre-mediated recombination to facilitate the functional study of delivered proteins in the following study.
The (−30)GFP-Cre protein loaded LNPs (GFP-Cre/LNPs) were prepared at first by simply mixing precalculated amount of aqueous solution of LNPs and protein at ambient conditions. For the intracellular delivery, after incubation with GFP-Cre/LNPs nanoparticles for 6 h, the GFP-positive cells were observed using fluorescence microscopy, harvested and counted by flow cytometry. […] The intracellular (−30)GFP-Cre protein delivery efficiencies were further quantified by flow cytometry.
(In flow cytometry, cells or beads pass a laser one at a time.)

As for `CCCCCCCCCCCCCCSCCOC(=O)CCN(CCCN(C)C)CCC(=O)OCCSCCCCCCCCCCCCCC` [Lipidoid 80-O17S], in the data set with HeLa-DsRed cells [1], the “cells positive for DsRed (protein transfection efficiency)” value (from here on “cells positive for DsRed”) is 45.6%.

`CCCCCCCCCCCCCCSCCOC(=O)CCN(CCC(=O)OCCSCCCCCCCCCCCCCC)CCC1CCCN1C` (stereo not drawn) [Lipidoid 77-O17S]: the “cells positive for DsRed” value in the data set on HeLa-DsRed cells [1] was determined as 38.6%.

For `CCCCCCCCCCCCCC[Se]CCOC(=O)CCN(CCC(=O)OCC[Se]CCCCCCCCCCCCCC)CCN(C)C` [Lipidoid 78-O17Se], the “cells positive for DsRed” value in the data set with HeLa-DsRed cells [1] was 37.8%.

With `CC(C)CCCC(C)C1CCC2C3CC=C4CC(OC(=O)NCCSSCCOC(=O)CCN(CCCN(CCO)CCO)CCC(=O)OCCSSCCNC(=O)OC5CCC6(C)C(=CCC7C6CCC6(C)C(C(C)CCCC(C)C)CCC76)C5)CCC4(C)C3CCC12C` (stereo not drawn) [Lipidoid 87-OCholB], the “GFP^+ cells” value in the data set with HeLa cells [2] is listed as 6.1%. Moreover, the “increase in averaged hydrodynamic diameter” value in data set [3] was determined as 210.3%. The “NR^+ cells” value in the data set on HeLa cells [4] is recorded as “lowest transfection efficacy, comparable to the untreated control group”. For the same compound, the “genome editing efficacy (DsRed^+ cells), overall” value with HeLa-DsRed cells [5] is “less efficient at delivery”. The “(−30)GFP-Cre delivery efficiency (GFP^+ cells), overall” value in the data set with HeLa-DsRed cells [6] is “lowest delivery efficiencies”.

As to `CC(C)CCCC(C)C1CCC2C3CC=C4CC(OC(=O)NCCSSCCOC(=O)CCN(CCC(=O)OCCSSCCNC(=O)OC5CCC6(C)C(=CCC7C6CCC6(C)C(C(C)CCCC(C)C)CCC76)C5)CCN5CCOCC5)CCC4(C)C3CCC12C` (stereo not drawn) [Lipidoid 90-OCholB], in the data set on HeLa cells [2], the “GFP^+ cells” value was found to be 2.5%. Moreover, in data set [3], the “increase in averaged hydrodynamic diameter” value was 179.5%. For the same compound, the “NR^+ cells” value with HeLa cells [4] is recorded as 12.9%. For the same compound, the “genome editing efficacy (DsRed^+ cells), overall” value with HeLa-DsRed cells [5] is “less efficient at delivery”. Further, the “(−30)GFP-Cre delivery efficiency (GFP^+ cells), overall” value in the data set with HeLa-DsRed cells [6] was “lowest delivery efficiencies”.

As for `CCCCCCCCCCCCCC[Se]CCOC(=O)CCN(CCC(=O)OCC[Se]CCCCCCCCCCCCCC)CCC1CCCN1C` (stereo not drawn) [Lipidoid 77-O17Se], the “cells positive for DsRed” value with HeLa-DsRed cells [1] amounted to 31.0%. The GFP-positive cells in the data set with HeLa-DsRed cells [7] was 37%.
